Measurements published in patent publication US20130338106A1, “COMPOUNDS INHIBITING LEUCINE-RICH REPEAT KINASE ENZYME ACTIVITY” (priority 2011, published 2013).

Key:
Type in all cases: biochemical
Conditions in all cases: tested at 10 uM, read-out: percent inhibition of the kinase activity
CHK2 = biological target: T1, CHK2 (Homo sapiens, UniProt O96017); assay: ProfilerPro Kinase Selectivity, CHK2
T1 construct: purchased Caliper LifeSciences
Method: (§1) Kinome selectivity profiling was performed using two example compounds according to the manufacturer's instructions using Caliper LifeSciences' ProfilerPro Kinase Selectivity Assay Kits. Compounds prepared in Examples 1 and 7 were tested at 10 uM and data were recorded using the Caliper LabChip® EZ Reader™. Each compounds' percent inhibition of the kinase activity measured in this manner is reported in the following lists.

PHKG2 = biological target: T2, PHKG2 (Homo sapiens, UniProt P15735); assay: ProfilerPro Kinase Selectivity, PHKG2
T2 construct: purchased Caliper LifeSciences
Method: as §1

PAK5 = biological target: T3, PAK5 (Homo sapiens, UniProt Q9P286); assay: ProfilerPro Kinase Selectivity, PAK5
T3 construct: purchased Caliper LifeSciences
Method: as §1

CK1G3 = biological target: T4, CK1G3 (Homo sapiens, UniProt Q9Y6M4); assay: ProfilerPro Kinase Selectivity, CK1G3
T4 construct: purchased Caliper LifeSciences
Method: as §1

NEK2 = biological target: T5, NEK2 (Homo sapiens, UniProt P51955); assay: ProfilerPro Kinase Selectivity, NEK2
T5 construct: purchased Caliper LifeSciences
Method: as §1

PRKCH = biological target: T6, PRKCH (Homo sapiens, UniProt P24723); assay: ProfilerPro Kinase Selectivity, PRKCH
T6 construct: purchased Caliper LifeSciences
Method: as §1

EPHA8 = biological target: T7, EPHA8 (Homo sapiens, UniProt P29322); assay: ProfilerPro Kinase Selectivity, EPHA8
T7 construct: purchased Caliper LifeSciences
T7 sequence (P29322 28-1005, species assumed): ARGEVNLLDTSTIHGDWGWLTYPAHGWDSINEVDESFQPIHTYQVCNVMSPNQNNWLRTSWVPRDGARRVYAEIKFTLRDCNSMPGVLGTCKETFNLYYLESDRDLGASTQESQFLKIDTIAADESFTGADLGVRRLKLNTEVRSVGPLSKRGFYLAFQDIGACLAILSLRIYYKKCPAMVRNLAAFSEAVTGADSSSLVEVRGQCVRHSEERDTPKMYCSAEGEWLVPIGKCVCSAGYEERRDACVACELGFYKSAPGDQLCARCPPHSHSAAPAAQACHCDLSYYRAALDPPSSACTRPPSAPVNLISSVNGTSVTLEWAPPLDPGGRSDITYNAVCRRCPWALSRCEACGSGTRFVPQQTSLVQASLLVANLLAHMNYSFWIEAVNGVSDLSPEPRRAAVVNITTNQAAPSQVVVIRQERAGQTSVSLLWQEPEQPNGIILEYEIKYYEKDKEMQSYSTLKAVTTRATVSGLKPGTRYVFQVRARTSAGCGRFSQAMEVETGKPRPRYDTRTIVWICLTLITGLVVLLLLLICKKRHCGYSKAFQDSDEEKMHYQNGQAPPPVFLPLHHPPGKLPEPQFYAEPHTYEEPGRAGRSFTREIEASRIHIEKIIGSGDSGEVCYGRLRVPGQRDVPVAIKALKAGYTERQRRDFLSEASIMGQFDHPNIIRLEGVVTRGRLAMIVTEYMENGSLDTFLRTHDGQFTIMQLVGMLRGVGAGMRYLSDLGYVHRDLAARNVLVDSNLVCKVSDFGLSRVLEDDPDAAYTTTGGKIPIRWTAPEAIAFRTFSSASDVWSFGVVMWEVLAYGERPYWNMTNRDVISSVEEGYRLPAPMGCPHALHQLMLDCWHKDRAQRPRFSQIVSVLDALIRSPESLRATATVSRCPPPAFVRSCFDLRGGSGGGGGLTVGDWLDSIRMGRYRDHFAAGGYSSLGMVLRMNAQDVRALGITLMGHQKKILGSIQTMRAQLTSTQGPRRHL
Method: as §1

P38A = biological target: T8, P38A (Homo sapiens, UniProt Q16539); assay: ProfilerPro Kinase Selectivity, P38A
T8 construct: purchased Caliper LifeSciences
T8 sequence (Q16539 2-360 limits assumed): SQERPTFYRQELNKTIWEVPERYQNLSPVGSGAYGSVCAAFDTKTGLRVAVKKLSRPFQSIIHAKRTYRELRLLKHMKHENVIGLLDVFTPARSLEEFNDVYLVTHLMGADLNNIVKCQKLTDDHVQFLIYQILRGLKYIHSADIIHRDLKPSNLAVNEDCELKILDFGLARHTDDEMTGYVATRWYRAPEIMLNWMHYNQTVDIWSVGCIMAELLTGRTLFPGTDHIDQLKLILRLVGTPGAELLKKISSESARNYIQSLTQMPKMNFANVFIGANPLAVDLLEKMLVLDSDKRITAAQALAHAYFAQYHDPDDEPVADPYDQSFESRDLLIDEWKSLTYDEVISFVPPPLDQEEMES
Method: as §1

SRC = biological target: T9, SRC (Homo sapiens, UniProt P12931); assay: ProfilerPro Kinase Selectivity, SRC
T9 construct: purchased Caliper LifeSciences
Method: as §1

MNK1 = biological target: T10, MNK1 (Homo sapiens, UniProt Q9BUB5); assay: ProfilerPro Kinase Selectivity, MNK1
T10 construct: purchased Caliper LifeSciences
T10 sequence (Q9BUB5 whole entry, species assumed): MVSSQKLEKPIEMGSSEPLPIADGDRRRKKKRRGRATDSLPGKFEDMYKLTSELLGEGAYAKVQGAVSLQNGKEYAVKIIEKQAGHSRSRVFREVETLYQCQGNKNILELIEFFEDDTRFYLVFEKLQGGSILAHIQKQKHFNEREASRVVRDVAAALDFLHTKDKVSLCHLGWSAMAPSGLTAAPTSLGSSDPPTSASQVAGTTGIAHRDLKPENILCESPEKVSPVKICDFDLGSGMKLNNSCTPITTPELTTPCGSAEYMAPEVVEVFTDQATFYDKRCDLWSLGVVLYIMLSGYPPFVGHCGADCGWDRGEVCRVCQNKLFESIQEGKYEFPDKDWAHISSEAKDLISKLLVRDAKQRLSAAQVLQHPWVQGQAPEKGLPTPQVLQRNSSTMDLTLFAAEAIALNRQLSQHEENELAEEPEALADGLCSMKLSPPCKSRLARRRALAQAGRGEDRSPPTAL
Method: as §1

CK1G1 = biological target: T11, CK1G1 (Homo sapiens, UniProt Q9HCP0); assay: ProfilerPro Kinase Selectivity, CK1G1
T11 construct: purchased Caliper LifeSciences
T11 sequence (Q9HCP0 whole entry): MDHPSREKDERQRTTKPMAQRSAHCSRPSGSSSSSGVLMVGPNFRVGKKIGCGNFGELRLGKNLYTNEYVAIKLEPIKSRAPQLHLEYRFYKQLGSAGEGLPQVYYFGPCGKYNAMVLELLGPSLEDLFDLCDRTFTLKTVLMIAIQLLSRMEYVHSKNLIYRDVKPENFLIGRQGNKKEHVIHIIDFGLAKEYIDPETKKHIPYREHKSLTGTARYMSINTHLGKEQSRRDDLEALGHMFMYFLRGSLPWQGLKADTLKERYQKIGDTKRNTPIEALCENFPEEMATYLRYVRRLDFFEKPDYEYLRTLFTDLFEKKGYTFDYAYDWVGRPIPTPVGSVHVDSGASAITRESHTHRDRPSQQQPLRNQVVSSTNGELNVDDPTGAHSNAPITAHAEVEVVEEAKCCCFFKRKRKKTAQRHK
Method: as §1

RAF-1 = biological target: T12, RAF-1 (Homo sapiens, UniProt P04049); assay: ProfilerPro Kinase Selectivity, RAF-1
T12 construct: purchased Caliper LifeSciences
Method: as §1

RET = biological target: T13, RET (Homo sapiens, UniProt P07949); assay: ProfilerPro Kinase Selectivity, RET
T13 construct: purchased Caliper LifeSciences
Method: as §1

PRKCG = biological target: T14, PRKCG (Homo sapiens, UniProt P05129); assay: ProfilerPro Kinase Selectivity, PRKCG
T14 construct: purchased Caliper LifeSciences
Method: as §1

RET V804L = biological target: T15, RET V804L (Homo sapiens, UniProt P07949, V804L); assay: ProfilerPro Kinase Selectivity, RET V804L
T15 construct: purchased Caliper LifeSciences
Method: as §1

FES = biological target: T16, FES (Homo sapiens, UniProt P07332); assay: ProfilerPro Kinase Selectivity, FES
T16 construct: purchased Caliper LifeSciences
Method: as §1

FGFR1 V561M = biological target: T17, FGFR1 V561M (Homo sapiens, UniProt P11362, V561M); assay: ProfilerPro Kinase Selectivity, FGFR1 V561M
T17 construct: purchased Caliper LifeSciences
Method: as §1

MAPKAPK5 = biological target: T18, MAPKAPK5 (Homo sapiens, UniProt Q8IW41); assay: ProfilerPro Kinase Selectivity, MAPKAPK5
T18 construct: purchased Caliper LifeSciences
Method: as §1

FLT1 = biological target: T19, FLT1 (Homo sapiens, UniProt P17948); assay: ProfilerPro Kinase Selectivity, FLT1
T19 construct: purchased Caliper LifeSciences
T19 sequence (P17948 27-1338, species assumed): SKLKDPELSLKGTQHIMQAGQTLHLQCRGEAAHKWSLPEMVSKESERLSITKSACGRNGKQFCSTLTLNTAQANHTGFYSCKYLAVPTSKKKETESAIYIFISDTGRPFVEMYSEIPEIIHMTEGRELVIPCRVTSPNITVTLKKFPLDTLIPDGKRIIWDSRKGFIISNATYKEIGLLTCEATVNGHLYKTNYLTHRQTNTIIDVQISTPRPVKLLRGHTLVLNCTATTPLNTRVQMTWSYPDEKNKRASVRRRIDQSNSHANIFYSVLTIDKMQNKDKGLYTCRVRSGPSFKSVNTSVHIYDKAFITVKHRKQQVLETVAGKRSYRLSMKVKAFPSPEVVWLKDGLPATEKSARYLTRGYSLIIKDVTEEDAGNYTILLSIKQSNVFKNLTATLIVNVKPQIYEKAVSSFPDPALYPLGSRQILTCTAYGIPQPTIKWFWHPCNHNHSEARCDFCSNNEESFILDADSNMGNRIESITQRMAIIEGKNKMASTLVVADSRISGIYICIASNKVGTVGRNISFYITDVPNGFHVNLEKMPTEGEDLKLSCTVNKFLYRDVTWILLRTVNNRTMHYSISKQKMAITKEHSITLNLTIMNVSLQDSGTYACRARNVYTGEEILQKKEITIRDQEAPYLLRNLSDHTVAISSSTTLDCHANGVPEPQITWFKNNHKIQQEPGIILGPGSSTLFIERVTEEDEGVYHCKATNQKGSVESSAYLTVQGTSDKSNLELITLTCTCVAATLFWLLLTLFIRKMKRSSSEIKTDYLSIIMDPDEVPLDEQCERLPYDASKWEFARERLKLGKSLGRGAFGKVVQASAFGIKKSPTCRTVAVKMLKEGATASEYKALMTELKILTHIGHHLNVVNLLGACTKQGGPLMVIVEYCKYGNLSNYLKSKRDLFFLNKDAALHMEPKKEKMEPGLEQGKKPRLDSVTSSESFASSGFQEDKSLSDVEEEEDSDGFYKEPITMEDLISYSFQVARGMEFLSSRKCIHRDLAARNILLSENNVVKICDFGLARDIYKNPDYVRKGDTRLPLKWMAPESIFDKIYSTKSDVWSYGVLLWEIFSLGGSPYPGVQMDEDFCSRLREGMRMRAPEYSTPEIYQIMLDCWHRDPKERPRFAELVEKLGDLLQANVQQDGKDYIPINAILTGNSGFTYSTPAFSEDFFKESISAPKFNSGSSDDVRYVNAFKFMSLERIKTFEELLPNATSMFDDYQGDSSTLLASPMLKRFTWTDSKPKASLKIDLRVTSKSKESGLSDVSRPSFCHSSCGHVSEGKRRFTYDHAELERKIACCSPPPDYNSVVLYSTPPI
Method: as §1

ABL H396P = biological target: T20, ABL H396P (Homo sapiens, UniProt P00519, H396P); assay: ProfilerPro Kinase Selectivity, ABL H396P
T20 construct: purchased Caliper LifeSciences
Method: as §1

IRAK4 = biological target: T21, IRAK4 (Homo sapiens, UniProt Q9NWZ3); assay: ProfilerPro Kinase Selectivity, IRAK4
T21 construct: purchased Caliper LifeSciences
Method: as §1

CDK3 = biological target: T22, CDK3 (Homo sapiens, UniProt Q00526); assay: ProfilerPro Kinase Selectivity, CDK3
T22 construct: purchased Caliper LifeSciences
Method: as §1

PRKCD = biological target: T23, PRKCD (Homo sapiens, UniProt Q05655); assay: ProfilerPro Kinase Selectivity, PRKCD
T23 construct: purchased Caliper LifeSciences
Method: as §1

PDGFRB = biological target: T24, PDGFRB (Homo sapiens, UniProt P09619); assay: ProfilerPro Kinase Selectivity, PDGFRB
T24 construct: purchased Caliper LifeSciences
T24 sequence (P09619 33-1106, species assumed): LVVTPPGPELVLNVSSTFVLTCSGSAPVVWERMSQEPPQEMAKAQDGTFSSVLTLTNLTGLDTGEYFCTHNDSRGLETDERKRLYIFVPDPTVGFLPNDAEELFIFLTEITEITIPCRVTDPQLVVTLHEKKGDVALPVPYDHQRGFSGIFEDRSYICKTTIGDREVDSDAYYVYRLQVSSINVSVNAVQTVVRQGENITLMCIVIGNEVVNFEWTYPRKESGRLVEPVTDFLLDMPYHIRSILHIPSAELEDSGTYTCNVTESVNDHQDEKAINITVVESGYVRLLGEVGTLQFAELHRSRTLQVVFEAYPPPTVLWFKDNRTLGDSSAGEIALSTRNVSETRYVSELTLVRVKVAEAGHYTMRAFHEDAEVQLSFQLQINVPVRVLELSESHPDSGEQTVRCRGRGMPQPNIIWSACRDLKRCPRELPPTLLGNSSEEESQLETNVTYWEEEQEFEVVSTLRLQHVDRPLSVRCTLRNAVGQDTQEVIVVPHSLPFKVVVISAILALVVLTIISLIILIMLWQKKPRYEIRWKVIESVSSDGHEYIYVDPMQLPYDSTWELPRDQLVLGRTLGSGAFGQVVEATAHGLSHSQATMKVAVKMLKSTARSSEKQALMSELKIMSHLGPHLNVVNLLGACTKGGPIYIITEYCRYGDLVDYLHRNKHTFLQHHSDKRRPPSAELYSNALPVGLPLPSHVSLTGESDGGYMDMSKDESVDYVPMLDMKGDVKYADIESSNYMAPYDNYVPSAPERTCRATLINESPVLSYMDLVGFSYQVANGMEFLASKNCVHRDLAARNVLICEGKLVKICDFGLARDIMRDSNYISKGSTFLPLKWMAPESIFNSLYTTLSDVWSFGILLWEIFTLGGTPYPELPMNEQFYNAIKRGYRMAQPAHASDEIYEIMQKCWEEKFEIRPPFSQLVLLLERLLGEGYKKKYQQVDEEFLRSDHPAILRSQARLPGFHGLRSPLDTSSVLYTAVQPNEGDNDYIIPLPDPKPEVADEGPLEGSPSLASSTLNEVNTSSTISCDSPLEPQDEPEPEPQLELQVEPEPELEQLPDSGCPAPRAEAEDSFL
Method: as §1

SGK2 = biological target: T25, SGK2 (Homo sapiens, UniProt Q9HBY8); assay: ProfilerPro Kinase Selectivity, SGK2
T25 construct: purchased Caliper LifeSciences
Method: as §1

FGFR2 = biological target: T26, FGFR2 (Homo sapiens, UniProt P21802); assay: ProfilerPro Kinase Selectivity, FGFR2
T26 construct: purchased Caliper LifeSciences
Method: as §1

EPHB2 = biological target: T27, EPHB2 (Homo sapiens, UniProt P29323); assay: ProfilerPro Kinase Selectivity, EPHB2
T27 construct: purchased Caliper LifeSciences
Method: as §1

PHKG1 = biological target: T28, PHKG1 (Homo sapiens, UniProt Q16816); assay: ProfilerPro Kinase Selectivity, PHKG1
T28 construct: purchased Caliper LifeSciences
T28 sequence (Q16816 whole entry, species assumed): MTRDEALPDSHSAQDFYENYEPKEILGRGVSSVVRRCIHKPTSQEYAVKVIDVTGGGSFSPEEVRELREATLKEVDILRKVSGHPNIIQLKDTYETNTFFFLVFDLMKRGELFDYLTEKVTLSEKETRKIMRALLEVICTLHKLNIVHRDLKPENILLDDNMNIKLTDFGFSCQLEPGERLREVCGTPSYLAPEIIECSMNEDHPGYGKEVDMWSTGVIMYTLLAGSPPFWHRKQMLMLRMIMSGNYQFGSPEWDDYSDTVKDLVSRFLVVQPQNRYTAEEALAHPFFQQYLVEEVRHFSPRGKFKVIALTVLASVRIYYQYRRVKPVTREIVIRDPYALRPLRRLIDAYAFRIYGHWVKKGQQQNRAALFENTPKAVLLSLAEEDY
Method: as §1

AKT1 = biological target: T29, AKT1 (Homo sapiens, UniProt P31749); assay: ProfilerPro Kinase Selectivity, AKT1
T29 construct: purchased Caliper LifeSciences
Method: as §1

SGK3 = biological target: T30, SGK3 (Homo sapiens, UniProt Q96BR1); assay: ProfilerPro Kinase Selectivity, SGK3
T30 construct: purchased Caliper LifeSciences
Method: as §1

P38B2 = biological target: T31, P38B2 (Homo sapiens, UniProt Q15759); assay: ProfilerPro Kinase Selectivity, P38B2
T31 construct: purchased Caliper LifeSciences
Method: as §1

KDR = biological target: T32, KDR (Homo sapiens, UniProt P35968); assay: ProfilerPro Kinase Selectivity, KDR
T32 construct: purchased Caliper LifeSciences
Method: as §1

DDR2 = biological target: T33, DDR2 (Homo sapiens, UniProt Q16832); assay: ProfilerPro Kinase Selectivity, DDR2
T33 construct: purchased Caliper LifeSciences
Method: as §1

FGFR2 N549H = biological target: T34, FGFR2 N549H (Homo sapiens, UniProt P21802, N549H); assay: ProfilerPro Kinase Selectivity, FGFR2 N549H
T34 construct: purchased Caliper LifeSciences
Method: as §1

IKKB = biological target: T35, IKKB (Homo sapiens, UniProt O14920); assay: ProfilerPro Kinase Selectivity, IKKB
T35 construct: purchased Caliper LifeSciences
Method: as §1

FMS = biological target: T36, FMS (Homo sapiens, UniProt P07333); assay: ProfilerPro Kinase Selectivity, FMS
T36 construct: purchased Caliper LifeSciences
Method: as §1

ROCK1 = biological target: T37, ROCK1 (Homo sapiens, UniProt Q13464); assay: ProfilerPro Kinase Selectivity, ROCK1
T37 construct: purchased Caliper LifeSciences
Method: as §1

LTK = biological target: T38, LTK (Homo sapiens, UniProt P29376); assay: ProfilerPro Kinase Selectivity, LTK
T38 construct: purchased Caliper LifeSciences
Method: as §1

MSK2 = biological target: T39, MSK2 (Homo sapiens, UniProt O75676); assay: ProfilerPro Kinase Selectivity, MSK2
T39 construct: purchased Caliper LifeSciences
Method: as §1

| SMILES | inhibition at 10 µM (CHK2) | inhibition at 10 µM (PHKG2) | inhibition at 10 µM (PAK5) | inhibition at 10 µM (CK1G3) | inhibition at 10 µM (NEK2) | inhibition at 10 µM (PRKCH) | inhibition at 10 µM (EPHA8) | inhibition at 10 µM (P38A) | inhibition at 10 µM (SRC) | inhibition at 10 µM (MNK1) | inhibition at 10 µM (CK1G1) | inhibition at 10 µM (RAF-1) | inhibition at 10 µM (RET) | inhibition at 10 µM (PRKCG) | inhibition at 10 µM (RET V804L) | inhibition at 10 µM (FES) | inhibition at 10 µM (FGFR1 V561M) | inhibition at 10 µM (MAPKAPK5) | inhibition at 10 µM (FLT1) | inhibition at 10 µM (ABL H396P) | other results |
| --- | --- | --- | --- | --- | --- | --- | --- | --- | --- | --- | --- | --- | --- | --- | --- | --- | --- | --- | --- | --- | --- |
| CSc1sc(-c2cc[nH]n2)c2c1C(=O)CCC2 [Example 1, 3-(Methylsulfanyl)-1-(1H-pyrazol-3-yl)-6,7-dihydro-2-benzothiophen-4(5H)-one] | 48.7% | -5.5% | -0.6% | 1.1% | -0.8% | 1.1% | -0.2% | -2.3% | 7.3% | 1.7% | 6.6% | 3.1% | 24.4% | 10% | 41.5% | -2.8% | 4.4% | 4.4% | 1.2% | 10.3% | inhibition at 10 µM (IRAK4): 31.1%; inhibition at 10 µM (CDK3): 21.4%; inhibition at 10 µM (PRKCD): -14.8%; inhibition at 10 µM (PDGFRB): 22.1%; inhibition at 10 µM (SGK2): 10.6%; inhibition at 10 µM (FGFR2): 4.9%; inhibition at 10 µM (EPHB2): 2.6%; inhibition at 10 µM (PHKG1): 6.3%; inhibition at 10 µM (AKT1): -3.2%; inhibition at 10 µM (SGK3): 4.6%; inhibition at 10 µM (P38B2): -1.3%; inhibition at 10 µM (KDR): 16.4%; inhibition at 10 µM (DDR2): 0.8%; inhibition at 10 µM (FGFR2 N549H): 1.4%; inhibition at 10 µM (IKKB): 9.3%; inhibition at 10 µM (FMS): -36.1%; inhibition at 10 µM (ROCK1): -3.1%; inhibition at 10 µM (LTK): 16%; inhibition at 10 µM (MSK2): 4.2% |
| CC1(C)CC(=O)c2c(SC3CCCC3)sc(-c3cc[nH]n3)c2C1 [Example 7, 3-(Cyclopentylsulfanyl)-6,6-dimethyl-1-(1H-pyrazol-3-yl)-6,7-dihydro-2-benzothiophen-4(5H)-one] | 3.7% | -2% | -4.4% | 7.7% | 0.9% | 0.8% | -3.8% | 0.6% | 1.5% | -5.6% | 10.9% | -0.2% | 20.7% | 2.3% | 15.7% | -3.1% | 7.9% | 1.9% | 11.8% | 3.1% | inhibition at 10 µM (IRAK4): 3.7%; inhibition at 10 µM (CDK3): 2.5%; inhibition at 10 µM (PRKCD): 12.6%; inhibition at 10 µM (PDGFRB): -1.4%; inhibition at 10 µM (SGK2): 5.4%; inhibition at 10 µM (FGFR2): 2.6%; inhibition at 10 µM (EPHB2): 2.3%; inhibition at 10 µM (PHKG1): 4.6%; inhibition at 10 µM (AKT1): 0.1%; inhibition at 10 µM (SGK3): 4.6%; inhibition at 10 µM (P38B2): -0.7%; inhibition at 10 µM (KDR): -0.8%; inhibition at 10 µM (DDR2): -3.9%; inhibition at 10 µM (FGFR2 N549H): -5.8%; inhibition at 10 µM (IKKB): 0.5%; inhibition at 10 µM (FMS): -6.5%; inhibition at 10 µM (ROCK1): 5.1%; inhibition at 10 µM (LTK): 19.5%; inhibition at 10 µM (MSK2): 10.4% |
